Data taken from patent US20100210568A1, “T[…] HORMONE FOR […] APPLICATIONS” (priority 2007, published 2010).

Assays:
HIV-1IIIB = assay: HIV-1 antiviral assay (CPE reduction, MTS) in CEM-SS cells; type: cell-based; settings: for antiviral activity of positive control compounds (in words): HIV-1 assay validity; for % CPE reduction in HIV-1 infected CEM-SS cells: test peptide 10 micrograms per ml, 6 days post-infection, MTS
CEM-SS cells = assay: Cytotoxicity (MTS cell viability) in the HIV-1 assay; settings: test peptide 10 micrograms per ml, MTS
HepG2-2.2.15 cells = assay: Cytotoxicity (dye uptake cell viability) in the HBV assay; type: cell-based; settings: % cell control
HCMV strain AD169 = assay: HCMV plaque reduction assay in MRC-5 cells; type: cell-based
Source text: (§1) Cells were split twic a week 1:2.
Ganciclovir was used as positive control.

MRC-5 cells = assay: Cytotoxicity testing in MRC-5 cells (CellTiter 96); type: cell-based, human; settings: 6 days incubation
Description: as §1
(§2) For cytotxicity testing, MRC-5 cells were seeded at 2,500 cells/well in 96 well plates using growth medium. […] The following day, peptide was added and tested in duplicates. After a 6 days incubation period, cell viability was measured using CellTiter 96 Solution (Promega). Plates were incubated for additional 4 hours at 37° C.

A549 cells [1] = assay: Cell cycle assay (propidium iodide, FACS); type: cell-based, human; settings: peptide 10 micrograms per ml, 24 hours
[2] = tested on: Interleukin-4 (IL-4), spleen cells; assay: Th1/Th2 cytokine profiling assay: IL-4; type: cell-based, Balb/c mice; settings: peptide 10 micrograms per ml; Ovalbumin restimulation 10 micrograms/ml; 72 hours
A549 cells [3] = assay: Apoptosis induction assay (Annexin-5); type: cell-based, human; settings: peptide 10 micrograms per ml, 24 hours
[4] = tested on: hepatitis B virus (HBV) ayw strain in HepG2-2.2.15 cells; assay: HBV experimental assay system (secreted HBV DNA, TaqMan PCR); type: cell-based; settings: test peptide 10 micrograms per ml; six days; HBV DNA in supernatant
[5] = tested on: Interferon-γ (IFN-γ), spleen cells; assay: Th1/Th2 cytokine profiling assay: IFN-γ; type: cell-based, Balb/c mice; settings: peptide 10 micrograms per ml; Ovalbumin restimulation 10 micrograms/ml; 72 hours
[6] = tested on: Interleukin-2 (IL-2), spleen cells; assay: Th1/Th2 cytokine profiling assay: IL-2; type: cell-based, Balb/c mice; settings: peptide 10 micrograms per ml; Ovalbumin restimulation 10 micrograms/ml; 72 hours
[7] = tested on: cyclic AMP generation in human peripheral blood mononuclear cells (PBMC); assay: cAMP induction assay (ELISA); type: cell-based; settings: 10 min at 37° C.; forskolin 50 micrograms per ml as positive control
Description: The cAMP kit was used as an immunoassay for the quantitative determination of cyclic AMP generation in human peripheral blood mononuclear cells (PBMC). PBMC were placed in 96-well microtitier plates (50 microliters of cells at 4×10^6/ml) and 50 microliters of medium alone (background control), forskolin (cAMP positive control; 50 micrograms per ml), or test peptide were added. Plates were mixed and incubated for 10 min at 37° C. and the cells were lysed by the addition of 50 microliters of 3% perchloric acid. NaOH was added to neutralize the samples. Plates were centrifuged for 15 min at 2500 rpm and the supernatants removed. The supernatants (diluted 2-fold in assay buffer) were then assayed for the levels of cAMP by ELISA.

MRSA = settings: peptide 10 micrograms per ml, visual reading of growth
RAW 264.7 cells = assay: Phagocytosis assay (Fluorescein-labeled Escherichia coli, flow cytometry); type: cell-based, mouse; settings: peptide 10 micrograms per ml; 30 min preincubation, 60 min ingestion
Description: RAW 264.7 (Mouse leukaemic monocyte macrophage cell line) cells were obtained from ATCC and grown in RPMI 1640 medium containing 10% FBS. […] After the cells were incubated for additional 60 min at 37° C. and allowed to ingest the Fluorescein-labeled Escherichia coli bacteria, cells were fixed with 1% paraformaldehyde. The samples were then analyzed by flow cytometry to determine the amount of phagocytosis as a function of brightness (the greater the phagocytic activity, the more fluorescence in the macrophage population). Data are reported as % positive and the mean fluorescence intensity (MFI) of positively stained cells.

[8] = tested on: Tumor Necrosis Factor-α (TNF-α), spleen cells; assay: Th1/Th2 cytokine profiling assay: TNF-α; type: cell-based, Balb/c mice; settings: peptide 10 micrograms per ml; Ovalbumin restimulation 10 micrograms/ml; 72 hours
[9] = tested on: Human Peripheral Blood Mononuclear Cells (PBMC), T cell proliferation; assay: T cell proliferation assay (PHA, 3H-thymidine); type: cell-based; settings: peptide 10 micrograms per ml; 3 days plus 12 hours 3H-thymidine
[10] = tested on: TNF alpha production in PBMC-derived macrophages; assay: TNF alpha production assay (LPS-stimulated macrophages, ELISA); type: cell-based, human; settings: peptide 10 micrograms per ml, 30 min; lipopolysaccharide 200 ng/ml; overnight
Source text: Not stimulated macrophages served as negative background control.

HUVEC = assay: Endothelial tube formation assay; type: cell-based, human; settings: peptide 10 micrograms per ml; 20 hours
Source text: Positive control was vehicle only. […] Raw data were expressed as average tubule lenghs in pixels±standard deviation.

Streptococcus pneumoniae = Streptococcus pneumoniae assay; type: cell-based; settings: peptide 10 micrograms per ml, visual reading of growth
Pseudomonas aeruginosa = Pseudomonas aeruginosa assay; type: cell-based; settings: peptide 10 micrograms per ml, visual reading of growth
[11] = Cytotoxicity (dye uptake cell viability) in the HBV assay; type: cell-based; settings: human, HepG2-2.2.15 cells, % cell control
[12] = tested on: Human Peripheral Blood Mononuclear Cells (PBMC), B cell proliferation; assay: B cell proliferation assay (SAC plus Interleukin-2, 3H-thymidine); type: cell-based; settings: peptide 10 micrograms per ml; 3 days plus 12 hours 3H-thymidine
[13] = Cytotoxicity (MTS cell viability) in the HIV-1 assay; settings: human, CEM-SS cells
[14] = tested on: Primary Human endothelial cells (HUVEC); assay: Endothelial cell migration assay; type: cell-based; settings: peptide 10 micrograms per ml; 22 hours
[15] = tested on: Interleukin-5 (IL-5), spleen cells; assay: Th1/Th2 cytokine profiling assay: IL-5; type: cell-based, Balb/c mice; settings: peptide 10 micrograms per ml; Ovalbumin restimulation 10 micrograms/ml; 72 hours
[16] = Cytotoxicity testing in MRC-5 cells (CellTiter 96); type: cell-based, human; settings: human, MRC-5 cells (embryonal lung fibroblasts), 6 days incubation, read-out: % Cell Viability
Description: as §1, §2

A549 cells [17] = assay: Apoptosis prevention assay (C2 ceramide, Annexin-5); type: cell-based, human; settings: peptide 10 micrograms per ml; 30 min pretreatment, then C2 ceramide

Cc1cn([C@H]2C[C@H](N=[N+]=[N-])[C@@H](CO)O2)c(=O)[nH]c1=O [AZT]
antiviral activity of positive control compounds (in words) (HIV-1IIIB): expected levels of antiviral activity | % CPE reduction in HIV-1 infected CEM-SS cells (HIV-1IIIB): 99% | % Cell viability (CEM-SS cells): 97%

Nc1ccn([C@@H]2CS[C@H](CO)O2)c(=O)n1 [Compound 3TC, Lamivudine, reference compound]
% Cell viability (HepG2-2.2.15 cells): 95.8%

Nc1nc(O)c2ncn(COC(CO)CO)c2n1 [Ganciclovir, reference compound]
antiviral activity of positive control compound (in words) (HCMV strain AD169; HCMV assay validity): expected levels of antiviral activity | % Cell viability (MRC-5 cells): 100%

CC(C)(C)NC(=O)[C@@H]1CN(Cc2cccnc2)CCN1C[C@@H](O)C[C@@H](Cc1ccccc1)C(=O)N[C@H]1c2ccccc2C[C@H]1O [Indinavir]
antiviral activity of positive control compounds (in words) (HIV-1IIIB): expected levels of antiviral activity | % Cell viability (CEM-SS cells): 93%

NC(=O)[C@@H]1CCCN1C(=O)[C@H](Cc1cnc[nH]1)NC(=O)[C@@H]1CCC(=O)N1 [TRH, Pyr-His-Pro-NH2]
Cell cycle analysis G0/G1 (A549 cells [1]): 58.1 | Cell cycle analysis G2/M (A549 cells [1]): 10.7 | Cell cycle analysis S (A549 cells [1]): 31.3 | IL-4 spleen cells; TH2 response (% of control) [2]: 106.2 % of control | % of induction (A549 cells [3]): 0.7% | % inhibition of HBV replication in HEP G2 cells [4]: 3.3% | IFNγ spleen cells; TH1 response (% of control) [5]: 102.0 % of control | IL-2 spleen cells (% of control) [6]: 0.0 % of control | % of Forskolin (positive control) induced cAMP formation [7]: 0.0% | % inhibition (MRSA): 0.0% | % of control phagocytosis (RAW 264.7 cells): 131.4% | TNF-a spleen cells; TH1 response (% of control) [8]: 110.7 % of control | % of PHA induced Control [9]: 98.6% | % of LPS induction [10]: 106.7% | % inhibition of tube formation (HUVEC): 7% | % inhibition (Streptococcus pneumoniae): 0.0% | % plaque reduction (HCMV strain AD169; peptide 10 micrograms per ml, 7-10 days, MRC-5 cells): 0.0% | % inhibition (Pseudomonas aeruginosa): 0.0% | % CPE reduction in HIV-1 infected CEM-SS cells (HIV-1IIIB): 0.0% | viability at 144 h, 10 micrograms per ml [11]: 87.4% | % of SAC/IL2 induced control [12]: 106.0% | viability at 10 micrograms per ml [13]: 94.6% | % inhibition of migration [14]: −12% | IL-5 spleen cells; TH2 response (% of control) [15]: 67.5 % of control | viability at 144 h [16]: 100% | % prevention of ceramide induced apoptosis (A549 cells [17]): 17.2%
